Measurements reported in patent US7931909B2, “Ocular therapy using alpha-2 adrenergic receptor compounds having enhanced anterior clearance rates” (Allergan, Inc., priority 2005, dated 2011).
Read-outs that look alike come from different tables or passages of the source. Marks after values point to notes of the source that are not given here.

Key:
[1] = tested on: organic cation transporter present in the conjunctiva; details: cited from earlier work
[2] = intravitreal PLA implant, 200 micrograms brimonidine, rabbit eyes
in vivo [3] = details: rabbit, other: intravitreal implant, 200 micrograms
[4] = Pharmacokinetics of brimonidine drug delivery systems administered subconjunctivally; format: in vivo, New Zealand White rabbits; details: all samples, subconjunctival drug delivery systems, rabbit
From the text: Thirty groups of rabbits (2 rabbits per group) were used. The groups were divided into 6 sections of 5 groups. […] In each section, one group underwent ophthalmic observation at 5 days after dosing (DAD) and were euthanized at 8 DAD, one group underwent ophthalmic observation at 5 and 29 DAD and were euthanized at 31 DAD, one group underwent ophthalmic observation at 5, 29, and 54 DAD and were euthanized at 60 DAD, and two groups underwent ophthalmic observation at 5, 29, 54, and 86 DAD and were euthanized at 93 DAD.
Eyes were prepared for surgery by topical application of two drops of 1% tropicamide and two drops of phenylephrine hydrochloride 2.5%. Betadine was applied and washed from the eyes, and 1-2 drops of 0.5% proparacaine hydrochloride were delivered to each eye. […] Rods and wafers were administered using forceps. Conjunctivae were sutured closed and received a ocular lubricant. Subconjunctival injections were performed by elevating the bulbar conjunctiva in the dorsotemporal quadrant using forceps. An injection was made into the subconjunctival space.
In the above, the samples were quantified using LC-MS/MS methods with quantitation limits of 10 ng/mL for aqueous and vitreous humor samples, 0.05 ng/mL for plasma samples, 0.5 ng for iris-ciliary body samples, lens samples, and retina samples.

in vivo [5] = details: albino, rabbit, vitreous humor, 928 ng
[6] = molecular target: alpha 2 adrenergic receptor; details: read-out: EC50 to activate the alpha 2 adrenergic receptor; isolated assay systems; cited from earlier work
[7] = cited from earlier work

In the case of `Brc1c(NC2=NCCN2)ccc2nccnc12` [brimonidine, 5-bromo-6-(2-imidazolidinylideneamino)quinoxaline], the “substrate for the organic cation transporter” value [1] is given as “substrate”, the “Brimonidine Concentration Iris-ciliary body” value ([2]; Day 8, mean (N = 2)) is given as 942 ng/g and the “Brimonidine Concentration Iris-ciliary body, estimated mean value in parentheses” value ([2]; Day 8, two samples above the limit of quantitation) is given as 3010 ng/g. For the same compound, the “Brimonidine Concentration Vitreous humor” value ([2]; Day 31, mean ± SEM) was 9.35 ± 6.25^b ng/mL, the “Brimonidine Concentration Lens” value ([2]; Day 58, mean ± SEM) was 17.9 ± 12.5^b ng/g and the “Brimonidine Concentration Retina” value ([2]; Day 58, mean ± SEM) was 122 ± 57.3^a ng/g. The “Brimonidine Concentration Vitreous humor” value ([2]; Day 58, mean ± SEM) was 5.6 ± 3.24^b ng/mL, the “Brimonidine Concentration Iris-ciliary body” value ([2]; Day 91, mean ± SEM) was 42.9 ± 18.7^c ng/g and the “Brimonidine Concentration Retina” value ([2]; Day 91, mean ± SEM) was 488 ± 471^b ng/g. For the same compound, the “Brimonidine Concentration Lens” value ([2]; Day 136, mean ± SEM) was 16.2 ± 12.3^a ng/g, the “Brimonidine Concentration Lens” value ([2]; Day 184, mean ± SEM) was 1.18 ± 0.71^b ng/g and the “Brimonidine Concentration Retina” value ([2]; Day 184, mean ± SEM) was 59.8 ± 35.0^b ng/g. The concentration at 31 day (in vivo [3]; iris-ciliary body) was 25.9 ± 9.11 ng/g, the concentration at 58 day (in vivo [3]; iris-ciliary body) was 69.4 ± 55.3 ng/g and the concentration at 136 day (in vivo [3]; iris-ciliary body) was 107 ± 41.5 ng/g. It also gave a concentration at 8 day (in vivo [3]; lens) of 45.1 ± 13.4 ng/g, a concentration at 31 day (in vivo [3]; lens) of 17 ± 3.92 ng/g and a concentration at 91 day (in vivo [3]; lens) of 50.1 ± 14.8 ng/g. For the same compound, the concentration at 8 day (in vivo [3]; retina) was 3630 ± 2110 ng/g, the concentration at 31 day (in vivo [3]; retina) was 35.3 ± 15.5 ng/g and the concentration at 136 day (in vivo [3]; retina) was 22.6 ± 5.9 ng/g. For the same compound, the concentration at 8 day (in vivo [3]; vitreous humor) was 47.2 ± 13.1 ng/mL, the concentration at 91 day (in vivo [3]; vitreous humor) was 59.3 ± 43.2 ng/mL and the Plasma brimonidine concentrations [4] was “below the lower limit of quantitation”. The vitreal clearance rate (as restated in Example 3) was 0.487 mL/day, the “route of elimination from the vitreous” value (conclusion from intravitreal clearance, rabbit) was “trans-retinal route” and the clearance (in vivo [5]) was 0.00812 mL/min. The half-life (in vivo [5]) was 87 min, the concentration at 0.5 h (in vivo [5]; other: intravitreal injection) was 608 ± 116 ng/mL and the concentration at 10 h (in vivo [5]; other: intravitreal injection) was 9.68 ± 6.48 ng/mL. The EC50 [6] was roughly 2 nM.

In the case of brimonidine tartrate, the solubility in water ([7]; in water) is given as 34 mg/mL and the “solubility in a pH 7.0 phosphate buffer” value ([7]; pH 7.0 phosphate buffer) is given as 2.4 mg/mL.
